Laboratory results reported in the supplement of paper PMC10627819.

Key:
B. subtilis 168 = assay: fitness (endpoint OD595 vs no drug) (fraction); higher = more growth
In short: (§1)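 Bacterial growth was followed in 384-well plates seeded at OD595 0.01, with 30 µl per well, or 55 µl for S. pneumoniae, in TSB, LB Lennox or CY at 37 °C. OD595 was read every 30 min for 14 h, and each reading had the first reading subtracted as background. Fitness is the background-corrected optical density at entry into stationary phase divided by the robust mean of the no-drug control wells. This ratio is capped at 1.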

S. aureus DSM 20231 [1] = assay: as above
In short: as §1

S. aureus Newman = assay: as above
In short: as §1

S. aureus DSM 20231 [2] = assay: Bliss interaction score (quartile over a dose matrix) (fitness difference); higher = more antagonism (negative = synergy)
In short: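 Fitness was derived from optical density at entry into stationary phase, divided by the robust mean of the no-drug wells on the same plate. That reading was taken as OD595, and the ratio was capped at 1. Single-drug fitness was inferred from the combination data. The Bliss score, observed fitness minus the expected product of single-drug fitness, was summarised as quartiles over technical, biological and donor/recipient replicates.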
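For Bliss interaction score (quartile over a dose matrix) in this document: first quartile when negative (synergy) and third quartile when positive (antagonism).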

N[C@@H]1CONC1=O [Cycloserine D] + Cc1onc(-c2ccccc2)c1C(=O)N[C@@H]1C(=O)N2[C@@H]1SC(C)(C)[C@@H]2C(=O)O [Oxacillin]
fitness
Conditions	first compound 0.125 µg/mL	first compound 0.25 µg/mL	first compound 0.375 µg/mL	first compound 0.5 µg/mL	first compound 0.75 µg/mL	first compound 1.5 µg/mL
B. subtilis 168, partner 0.002 µg/mL	0.973	0.926	–	0.906	–	–
B. subtilis 168, partner 0.004 µg/mL	0.966	0.887	–	0.9	–	–
B. subtilis 168, partner 0.008 µg/mL	0.936	0.892	–	0.907	–	–
S. aureus DSM 20231 [1], partner 0.0156 µg/mL	–	–	0.878	–	0.906	0.931
S. aureus DSM 20231 [1], partner 0.0312 µg/mL	–	–	0.67	–	0.712	0.656
S. aureus DSM 20231 [1], partner 0.0625 µg/mL	–	–	0.506	–	0.499	0.494
S. aureus Newman, partner 0.0156 µg/mL	–	–	0.819	–	0.779	0.771
S. aureus Newman, partner 0.0312 µg/mL	–	–	0.716	–	0.663	0.642
S. aureus Newman, partner 0.0625 µg/mL	–	–	0.611	–	0.611	0.579

fitness, B. subtilis 168, one replicate
Conditions	partner 0.0078 µg/mL	partner 0.0155 µg/mL	partner 0.031 µg/mL	partner 0.075 µg/mL	partner 0.15 µg/mL	partner 0.3 µg/mL
first compound 0.125 µg/mL	0.99	0.909	0.873	0.526	0.0465	0.0536
first compound 0.25 µg/mL	0.937	0.966	0.88	0.596	0.0158	0.0367
first compound 0.5 µg/mL	0.973	≥ 1	0.973	0.459	0.0287	0.0208

C/C(=C\C(=O)OCCCCCCCCC(=O)O)C[C@@H]1OC[C@H](C[C@@H]2O[C@H]2[C@@H](C)[C@H](C)O)[C@@H](O)[C@H]1O [Pseudomonic acid] + CCCSc1nc(N[C@@H]2C[C@H]2c2ccc(F)c(F)c2)c2nnn([C@@H]3C[C@H](OCCO)[C@@H](O)[C@H]3O)c2n1 [Ticagrelor]
Conditions	Bliss interaction score
S. aureus DSM 20231 [2]	0.241
